From patent publication US10253039B2, “Inhibitors of bacterial DNA gyrase with efficacy against gram-negative bacteria” (priority 2014, dated 2019)
In brackets after ≈: the same amount, converted by molar mass. Like-named read-outs stand apart in the source and are kept apart here.

What was measured:
[1] = test system: Staphylococcus aureus; assay: MIC, microdilution in 96-well plates
[2] = test system: E. coli BW25113 ΔtolC cipR isolate GyrB Ser464Phe; assay: MIC against ciprofloxacin-resistant mutant; conditions: Escherichia coli, BW25113
Method: (§2) A microdilution method in 96-well plates was used and the MIC protocol established by the Clinical Laboratory Standards Institute was followed. From a growing subculture, a 1:10000 inoculum of each strain in Luria-Bertani media was prepared and aliquoted 100 μL in 4 columns of wells, except for the top row wells, which contained 200 μL of inoculum. […] The liquid in each of wells was mixed with a multi-channel pipet and 100 μL was transferred to the next well and mixed. The 2-fold dilution was continued down the 96-well plate until 100 μL was left, which was discarded. The plates were incubated at 37° C. with shaking for 16-18 hours. The MIC was determined as the lowest concentration that inhibited growth and had no turbidity by visual inspection.

[3] = test system: E. coli BW25113 ΔtolC gyrR isolate GyrA His45Tyr; assay: MIC against gyramide-resistant mutant; conditions: Escherichia coli, BW25113
Method: as §2

[4] = test system: mutant E. coli (with a drug pump knock out); assay: Killing of mutant E. coli; assay type: cell-based, Escherichia coli
[5] = test system: ciprofloxacin resistant strains of E. coli; assay: MIC against ciprofloxacin resistant strains compared to parent strain; conditions: ratio to MIC of parent strain E. coli BW25113 ΔtolC
Method: as §2

[6] = test system: gyramide A resistant mutants of E. coli; assay: MIC against gyramide A resistant mutants compared to parent strain; conditions: ratio to MIC of parent strain E. coli BW25113 ΔtolC
Method: as §2

[7] = test system: Morganella morganii; assay: MIC, microdilution in 96-well plates
[8] = test system: E. coli BW25113 ΔtolC cipR isolate GyrA Asp87Gly; assay: MIC against ciprofloxacin-resistant mutant; conditions: Escherichia coli, BW25113
Method: as §2

[9] = test system: Enterobacter aerogenes; assay: MIC, microdilution in 96-well plates; assay type: cell-based; conditions: Klebsiella aerogenes, Enterobacter aerogenes, read-out: MIC
How it was run: (§1)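 First, a 1:10000 inoculum of each strain was made in Luria-Bertani medium from a growing subculture. Next, the compound was added and diluted 2-fold down the plate in three replicate columns, with DMSO in a fourth. Finally, plates were shaken at 37° C. for 16-18 hours and scored visually.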

[10] = test system: Edwardsiella tarda; assay: MIC, microdilution in 96-well plates; assay type: cell-based; conditions: read-out: MIC
How it was run: as §1

[11] = test system: E. coli BW25113; assay: MIC, microdilution in 96-well plates; assay type: cell-based; conditions: Escherichia coli, BW25113, E. coli BW25113, read-out: MIC
How it was run: as §1

[12] = test system: Acinetobacter baumannii; assay: MIC, microdilution in 96-well plates; assay type: cell-based; conditions: read-out: MIC
How it was run: as §1

[13] = test system: Pseudomonas aeruginosa; assay: MIC, microdilution in 96-well plates; assay type: cell-based; conditions: read-out: MIC
How it was run: as §1

[14] = test system: E. coli BW25113 ΔtolC gyrR isolate GyrB Thr508Met; assay: MIC against gyramide-resistant mutant; conditions: Escherichia coli, BW25113
Method: as §2

[15] = target: T1, GyrBAfus:20-20 bp DNA complex (Staphylococcus aureus, UniProt P0A0K8+P20831); assay: 1H NMR binding study, titration; conditions: titrating 1:1 GyrBAfus:20-20 bp DNA into 50 μM compound
T1 construct: The C-terminal end of the B subunit was connected to the N-terminal end of the A subunit
T1 sequence (P0A0K8 410-543): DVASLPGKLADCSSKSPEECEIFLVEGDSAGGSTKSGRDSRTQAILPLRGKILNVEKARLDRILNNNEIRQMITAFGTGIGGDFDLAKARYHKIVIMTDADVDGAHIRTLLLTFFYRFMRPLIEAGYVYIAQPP
T1 sequence (P0A0K8 580-644): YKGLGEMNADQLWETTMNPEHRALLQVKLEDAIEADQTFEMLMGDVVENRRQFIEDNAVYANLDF
T1 sequence (P20831 2-491): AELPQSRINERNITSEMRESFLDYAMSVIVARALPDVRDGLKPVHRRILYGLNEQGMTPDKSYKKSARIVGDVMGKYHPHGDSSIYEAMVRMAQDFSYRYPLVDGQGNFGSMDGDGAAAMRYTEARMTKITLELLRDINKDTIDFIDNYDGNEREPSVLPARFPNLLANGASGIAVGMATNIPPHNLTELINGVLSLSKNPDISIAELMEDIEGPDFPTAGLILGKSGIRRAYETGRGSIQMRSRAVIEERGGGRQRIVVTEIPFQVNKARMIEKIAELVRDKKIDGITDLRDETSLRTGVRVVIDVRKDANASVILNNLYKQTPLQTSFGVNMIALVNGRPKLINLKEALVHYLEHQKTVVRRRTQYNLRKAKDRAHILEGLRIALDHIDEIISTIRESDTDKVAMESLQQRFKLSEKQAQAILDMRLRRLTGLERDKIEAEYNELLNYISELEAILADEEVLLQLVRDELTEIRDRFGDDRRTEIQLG

[16] = test system: E. coli BW25113 ΔtolC gyrR isolate GyrA Phe96Leu; assay: MIC against gyramide-resistant mutant; conditions: Escherichia coli, BW25113
Method: as §2

[17] = test system: E. coli BW25113 ΔtolC cipR isolate GyrA Ser83Leu; assay: MIC against ciprofloxacin-resistant mutant; conditions: Escherichia coli, BW25113
Method: as §2

[18] = test system: E. coli BW25113 ΔtolC gyrR isolate GyrA Pro35Thr; assay: MIC against gyramide-resistant mutant; conditions: Escherichia coli, BW25113
Method: as §2

[19] = test system: Shigella boydii; assay: MIC, microdilution in 96-well plates
[20] = test system: Salmonella typhimurium; assay: MIC, microdilution in 96-well plates; conditions: Salmonella enterica
[21] = test system: E. coli BW25113 ΔtolC gyrR isolate GyrA Ser97Pro; assay: MIC against gyramide-resistant mutant; conditions: Escherichia coli, BW25113
Method: as §2

[22] = test system: E. coli JW5503 (deltolC); assay: MIC, 20-strain panel; assay type: cell-based; conditions: Escherichia coli, E. coli JW5503 (deltolC); Table 7, separate set of experiments
How it was run: as §1

[23] = test system: Streptococcus pyogenes; assay: MIC, 20-strain panel; assay type: cell-based; conditions: Table 7, separate set of experiments, read-out: MIC
How it was run: as §1

[24] = test system: Enterococcus faecalis; assay: MIC, 20-strain panel; assay type: cell-based; conditions: Table 7, separate set of experiments
How it was run: as §1

[25] = test system: Shigella flexneri; assay: MIC, 20-strain panel; assay type: cell-based; conditions: Table 7, separate set of experiments
How it was run: as §1

[26] = test system: Staphylococcus aureus subsp. aureus; assay: MIC, 20-strain panel; assay type: cell-based; conditions: Staphylococcus aureus subsp. aureus, Table 7, separate set of experiments, read-out: MIC
How it was run: as §1

[27] = target: E. coli DNA gyrase (Escherichia coli, UniProt P0AES4+P0AES6); assay: DNA gyrase gel shift assay; conditions: IC50 against E. coli DNA gyrase, WT Gyrase
Chain of E. coli DNA gyrase (P0AES4 whole entry, one chain of several): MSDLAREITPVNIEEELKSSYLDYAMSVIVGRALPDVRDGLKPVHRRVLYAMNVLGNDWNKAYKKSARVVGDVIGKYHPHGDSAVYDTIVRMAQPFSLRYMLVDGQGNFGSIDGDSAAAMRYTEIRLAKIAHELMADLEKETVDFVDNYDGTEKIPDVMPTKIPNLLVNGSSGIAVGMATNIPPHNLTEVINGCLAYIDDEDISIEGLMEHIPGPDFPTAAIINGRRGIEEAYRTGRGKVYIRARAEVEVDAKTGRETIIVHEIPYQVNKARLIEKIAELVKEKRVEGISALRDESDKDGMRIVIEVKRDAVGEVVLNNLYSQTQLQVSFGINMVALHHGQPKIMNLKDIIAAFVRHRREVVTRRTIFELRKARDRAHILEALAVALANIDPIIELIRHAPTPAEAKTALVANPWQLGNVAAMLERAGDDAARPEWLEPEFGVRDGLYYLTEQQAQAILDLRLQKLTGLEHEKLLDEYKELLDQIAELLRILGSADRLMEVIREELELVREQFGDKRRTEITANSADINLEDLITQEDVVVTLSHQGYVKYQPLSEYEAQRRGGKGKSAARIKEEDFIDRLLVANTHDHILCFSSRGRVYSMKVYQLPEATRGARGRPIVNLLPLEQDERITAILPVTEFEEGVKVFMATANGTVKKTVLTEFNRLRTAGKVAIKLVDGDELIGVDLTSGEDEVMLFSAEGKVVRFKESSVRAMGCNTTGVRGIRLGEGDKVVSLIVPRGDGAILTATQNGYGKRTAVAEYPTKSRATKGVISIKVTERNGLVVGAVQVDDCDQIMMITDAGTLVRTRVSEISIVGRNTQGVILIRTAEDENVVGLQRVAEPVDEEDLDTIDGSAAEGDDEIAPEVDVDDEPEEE

[28] = test system: Vibrio cholera; assay: MIC, microdilution in 96-well plates; conditions: Vibrio cholerae
[29] = Table 7, separate set of experiments

## N#Cc1cccc(S(=O)(=O)N[C@@H]2CCN(Cc3ccc(-c4ccccc4)cc3)C2)c1 [Gyramide C2, gyramide C2]
[1]; with PAβN (60 μM)
  MIC: 40 µM (≈ 16.7 µg/mL)
[1]; without PAβN
  MIC: 160 µM (≈ 66.8 µg/mL)
[2]
  MIC: 0.4 µM (≈ 0.167 µg/mL)
[3]
  MIC: > 25.6 µM
[4]
  concentration observed to kill mutant E. coli: 300 nM
[5]
  MIC against ciprofloxacin resistant strains compared to the parent strain: 4-8 times
[6]
  MIC against gyramide A resistant mutants compared to the parent strain: > 200 times
[7]
  MIC: > 640 µM
[7]; without PAβN
  MIC: >640 µM
[8]
  MIC: 0.8 µM (≈ 0.334 µg/mL)
[9]; [29]
  MIC: > 16 µg/mL
[9]; with PAβN (60 μM)
  MIC: 10 µM
[9]; without PAβN
  MIC: > 640 µM
[10]; [29]
  MIC: 16 µg/mL
[10]; with PAβN (60 μM)
  MIC: 20 µM
[10]; without PAβN
  MIC: > 640 µM
[11]; [29]
  MIC: 16 µg/mL
[11]; without PAβN
  MIC: 20 µM
[12]; [29]
  MIC: > 16 µg/mL
[12]; with PAβN (60 μM)
  MIC: 40 µM
[12]; without PAβN
  MIC: > 640 µM
[13]; [29]
  MIC: > 16 µg/mL
[13]; with PAβN (60 μM)
  MIC: 20 µM
[13]; without PAβN
  MIC: > 640 µM
[14]
  MIC: 25.6 µM (≈ 10.7 µg/mL)
[15]
  Kd for the association: < 50000 nM
[16]
  MIC: 25.6 µM (≈ 10.7 µg/mL)
[17]
  MIC: 0.4 µM (≈ 0.167 µg/mL)
[18]
  MIC: 25.6 µM (≈ 10.7 µg/mL)
[19]; with PAβN (60 μM)
  MIC: 1.25 µM (≈ 0.522 µg/mL)
[19]; without PAβN
  MIC: 80 µM (≈ 33.4 µg/mL)
[20]; with PAβN (60 μM)
  MIC: 2.5 µM (≈ 1.04 µg/mL)
[20]; without PAβN
  MIC: > 640 µM
[21]
  MIC: > 25.6 µM
[22]
  MIC: 0.015 µg/mL (≈ 0.0359 µM)
[23]
  MIC: > 16 µg/mL
[24]
  MIC: > 16 µg/mL
[25]
  MIC: 8 µg/mL (≈ 19.2 µM)
[26]
  MIC: > 16 µg/mL
[27]; Average of 3 trials
  IC50: 122 ± 39.2 nM
[27]; Trial 1
  IC50: 84.5 nM
[27]; Trial 2
  IC50: 119 nM
[27]; Trial 3
  IC50: 163 nM
[28]; with PAβN (60 μM)
  MIC: 40 µM (≈ 16.7 µg/mL)
[28]; without PAβN
  MIC: 160 µM (≈ 66.8 µg/mL)
